Results as given in paper PMC12394179, “Re‐engineering a transferase scaffold for indole C3 methylation in diketopiperazines” (Protein Science : A Publication of the Protein Society, 2025).

Target: T1, SeMT (Saccharopolyspora erythraea, UniProt A4FFC0)
T1 construct: gene SACE_3471; codon-harmonized synthetic gene in pET28a(+), E. coli BL21(DE3), Ni-NTA purified; dimer
T1 sequence (A4FFC0 1-266): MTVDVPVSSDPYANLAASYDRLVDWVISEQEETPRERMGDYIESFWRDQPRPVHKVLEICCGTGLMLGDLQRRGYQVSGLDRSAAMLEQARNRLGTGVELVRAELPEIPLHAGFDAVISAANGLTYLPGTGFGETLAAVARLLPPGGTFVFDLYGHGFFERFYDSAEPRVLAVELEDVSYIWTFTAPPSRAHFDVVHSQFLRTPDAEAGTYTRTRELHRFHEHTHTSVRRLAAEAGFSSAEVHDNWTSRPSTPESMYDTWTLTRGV
Test: X-ray crystallography
Format: binding
Settings: co-crystal with 2 mM SAH, pH 5.6 reservoir; cofactor site (product of methyl transfer)

Nc1ncnc2c1ncn2[C@@H]1O[C@H](CSCC[C@H](N)C(=O)O)[C@@H](O)[C@H]1O [SAH]
X-ray crystallography: the demethylated cofactor SAH (included in the sample for crystallization) is found embraced
